The values that follow come from paper PMC11266321 (EJNMMI Radiopharmacy and Chemistry, 2024).

Series [1] deals with α1-Adrenergic (non-selective). Nature of the series: Radioligand binding inhibition, α1-Adrenergic. Particulars: 10 µM; radioligand [^3H]Prazosin; mean of duplicate.
For series [2], the system named is β-Adrenergic (non-selective). Nature of the series: Radioligand binding inhibition, β-Adrenergic. Particulars: 10 µM; radioligand [^3H]DHA; mean of duplicate. On the procedure:
(§1) Interaction of MMP with 28 binding sites was examined, including major classes of neurotransmitter receptor, uptake system, and ion channels (Sekisui Medical, Naka, Japan). MMP was tested in all assays at 10 µM. […] 10.2.3 (GraphPad Software, San Diego, CA). Each determination was made in duplicate.
(§2) Test substance concentration : 10 µM, positive substance concentration : 10 µM
(§3) Data are expressed as the mean values of duplicate samples.
(§4) The % inhibition was calculated from “100 – binding ratio”.
(§5) Binding ratio: [(B - N) / (B0 - N)] × 100 (%)
(§6) B: Bound radioactivity in the presence of test substance and positive substance (individual value)
(§7) B0: Total bound radioactivity in the absence of test substance and positive substance (mean value)
(§8) N: Non-specific bound radioactivity (mean value)

In another series the target is T1, Dopamine D1 (Homo sapiens, UniProt P21728).
T1 construct: Sekisui Medical (contract laboratory)
T1 sequence (P21728 whole entry): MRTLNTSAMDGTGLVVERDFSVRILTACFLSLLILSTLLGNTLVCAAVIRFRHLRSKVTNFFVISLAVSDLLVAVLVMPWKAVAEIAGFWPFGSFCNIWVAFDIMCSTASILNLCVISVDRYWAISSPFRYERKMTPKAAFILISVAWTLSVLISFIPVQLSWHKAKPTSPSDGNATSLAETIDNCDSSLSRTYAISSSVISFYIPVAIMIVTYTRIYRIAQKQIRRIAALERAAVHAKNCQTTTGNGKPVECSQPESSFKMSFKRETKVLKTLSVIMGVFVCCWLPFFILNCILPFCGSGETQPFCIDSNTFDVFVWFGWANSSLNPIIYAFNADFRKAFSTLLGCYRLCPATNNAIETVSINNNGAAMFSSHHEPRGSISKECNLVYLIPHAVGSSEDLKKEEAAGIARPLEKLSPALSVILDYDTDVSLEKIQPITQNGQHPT
Kind of series: Radioligand binding inhibition, Dopamine D1. Particulars: 10 µM; radioligand [^3H]SCH23390; mean of duplicate. The protocol: (§9) Interaction of MMP with 28 binding sites was examined, including major classes of neurotransmitter receptor, uptake system, and ion channels (Sekisui Medical, Naka, Japan). MMP was tested in all assays at 10 µM. […] Each determination was made in duplicate.
as §2, §3, §4, §5, §6, §7, §8

Series [3] has as its system Glutamate (non-selective). Kind of series: Radioligand binding inhibition, Glutamate non-selective. Particulars: 10 µM; radioligand [^3H]Glutamic acid; mean of duplicate. On the procedure:
as §1, §2, §3, §4, §5, §6, §7, §8

The test system of a further series is Glutamate (Ketamine). Kind of series: Radioligand binding inhibition, Glutamate (Ketamine). Particulars: 10 µM; radioligand [^3H]Kainic acid; mean of duplicate.
Series [4] has as its system Glutamate (NMDA agonist site). Nature of the series: Radioligand binding inhibition, Glutamate NMDA agonist site. Particulars: 10 µM; radioligand [^3H]CGP-39653; mean of duplicate. On the procedure:
as §1, §2, §3, §4, §5, §6, §7, §8

For series [5], the system named is Glutamate (NMDA phencyclidine site). Kind of series: Radioligand binding inhibition, Glutamate NMDA phencyclidine site. Particulars: 10 µM; radioligand [^3H]MK-801; mean of duplicate. The protocol: as §1, §2, §3, §4, §5, §6, §7, §8
The target of a further series is T2, Histamine H2 (Homo sapiens, UniProt P25021).
T2 construct: Sekisui Medical (contract laboratory)
T2 sequence (P25021 whole entry): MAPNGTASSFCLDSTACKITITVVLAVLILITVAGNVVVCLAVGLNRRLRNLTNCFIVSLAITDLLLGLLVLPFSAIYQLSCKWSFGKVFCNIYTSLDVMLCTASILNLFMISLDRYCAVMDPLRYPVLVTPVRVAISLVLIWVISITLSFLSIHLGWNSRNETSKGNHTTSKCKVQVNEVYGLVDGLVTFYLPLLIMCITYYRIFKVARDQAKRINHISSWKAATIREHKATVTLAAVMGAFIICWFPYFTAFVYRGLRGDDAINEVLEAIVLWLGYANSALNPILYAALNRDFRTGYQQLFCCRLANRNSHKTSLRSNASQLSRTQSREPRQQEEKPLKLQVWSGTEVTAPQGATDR
Kind of series: Radioligand binding inhibition, Histamine H2. Particulars: 10 µM; radioligand [^125I]Iodoaminopotentidine; mean of duplicate. The protocol:
as §1, §2, §3, §4, §5, §6, §7, §8

A further series addresses T3, Histamine H3 (Homo sapiens, UniProt Q9Y5N1).
T3 construct: Sekisui Medical (contract laboratory)
Nature of the series: Radioligand binding inhibition, Histamine H3. Particulars: 10 µM; radioligand [^3H]N-methyl-histamine; mean of duplicate. On the procedure:
as §9, §2, §3, §4, §5, §6, §7, §8

The target in a further series is T4, Muscarinic M1 (Homo sapiens, UniProt P11229).
T4 construct: Sekisui Medical (contract laboratory)
T4 sequence (P11229 whole entry): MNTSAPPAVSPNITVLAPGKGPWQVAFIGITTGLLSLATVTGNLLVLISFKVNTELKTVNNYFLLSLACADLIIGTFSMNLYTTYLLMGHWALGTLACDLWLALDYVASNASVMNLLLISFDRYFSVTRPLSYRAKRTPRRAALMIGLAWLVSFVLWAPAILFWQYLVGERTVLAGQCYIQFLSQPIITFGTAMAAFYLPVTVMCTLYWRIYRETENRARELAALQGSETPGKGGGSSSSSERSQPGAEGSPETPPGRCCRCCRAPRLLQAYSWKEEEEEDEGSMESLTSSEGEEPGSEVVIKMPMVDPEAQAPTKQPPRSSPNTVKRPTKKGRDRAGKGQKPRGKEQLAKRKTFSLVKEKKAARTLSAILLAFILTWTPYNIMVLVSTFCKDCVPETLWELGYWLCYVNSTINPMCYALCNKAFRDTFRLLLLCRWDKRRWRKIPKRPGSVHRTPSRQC
In kind it is binding. The settings on record: 10 µM; radioligand [^3H]Pirenzepine; mean of duplicate.

In the next series the target is T5, Muscarinic M2 (Homo sapiens, UniProt P08172).
T5 construct: Sekisui Medical (contract laboratory)
T5 sequence (P08172 whole entry): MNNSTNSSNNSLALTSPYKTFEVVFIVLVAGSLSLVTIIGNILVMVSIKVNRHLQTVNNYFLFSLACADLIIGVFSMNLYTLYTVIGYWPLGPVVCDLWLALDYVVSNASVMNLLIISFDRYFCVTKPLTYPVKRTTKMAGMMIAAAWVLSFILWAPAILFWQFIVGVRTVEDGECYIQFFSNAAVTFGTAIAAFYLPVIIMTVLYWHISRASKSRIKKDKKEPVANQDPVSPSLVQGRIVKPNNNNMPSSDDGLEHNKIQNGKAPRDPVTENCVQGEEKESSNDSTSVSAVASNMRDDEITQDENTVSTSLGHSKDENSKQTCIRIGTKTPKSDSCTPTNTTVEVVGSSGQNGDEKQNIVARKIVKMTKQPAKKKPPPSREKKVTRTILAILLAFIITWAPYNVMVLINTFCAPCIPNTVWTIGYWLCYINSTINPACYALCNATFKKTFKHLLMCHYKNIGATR
Kind of series: Radioligand binding inhibition, Muscarinic M2. Particulars: 10 µM; radioligand [^3H]AF-DX384; mean of duplicate. The protocol:
as §9, §2, §3, §4, §5, §6, §7, §8

For another series, the system named is Opiate (non-selective). Kind of series: Radioligand binding inhibition, Opiate. Particulars: 10 µM; radioligand [^3H]Naloxone; mean of duplicate. On the procedure: as §1, §2, §3, §4, §5, §6, §7, §8
The target in the next series is T6, Serotonin 5HT1A (Homo sapiens, UniProt P08908).
T6 construct: Sekisui Medical (contract laboratory)
T6 sequence (P08908 whole entry): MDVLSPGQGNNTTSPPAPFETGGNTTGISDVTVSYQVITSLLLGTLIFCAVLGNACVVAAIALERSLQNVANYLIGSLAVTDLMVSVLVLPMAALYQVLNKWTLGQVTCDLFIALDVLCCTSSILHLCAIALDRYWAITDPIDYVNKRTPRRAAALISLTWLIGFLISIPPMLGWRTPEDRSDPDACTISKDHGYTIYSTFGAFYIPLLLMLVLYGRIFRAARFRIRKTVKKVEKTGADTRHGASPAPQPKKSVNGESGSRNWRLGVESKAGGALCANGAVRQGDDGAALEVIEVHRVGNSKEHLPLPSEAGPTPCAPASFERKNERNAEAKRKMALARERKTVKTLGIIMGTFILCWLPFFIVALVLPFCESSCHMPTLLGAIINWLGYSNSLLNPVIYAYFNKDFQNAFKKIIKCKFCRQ
Nature of the series: Radioligand binding inhibition, Serotonin 5HT1A. The settings on record: 10 µM; radioligand [^3H]8-OH DPAT; mean of duplicate. The protocol:
as §1, §2, §3, §4, §5, §6, §7, §8

The next series addresses T7, Serotonin 5HT2A (Homo sapiens, UniProt P28223).
T7 construct: Sekisui Medical (contract laboratory that ran the panel)
Kind of series: Radioligand binding inhibition, Serotonin 5HT2A. Particulars: 10 µM; radioligand [^3H]Ketanserin; mean of duplicate. On the procedure:
as §1, §2, §3, §4, §5, §6, §7, §8

For a further series, the system named is Sigma (non-selective). Nature of the series: Radioligand binding inhibition and competitive inhibition curve, sigma receptor. The protocol: as §9
Data are expressed as mean values of duplicate samples.
as §2, §3, §4, §5, §6, §7, §8

Series [6] relates to other brain neuroreceptors. Kind of series: Receptor selectivity panel, other binding sites. Particulars: 10 µM; binding sites other than sigma. The protocol: as §1
Another series concerns Sprague–Dawley rats. Kind of series: Acute toxicity of MMP, single intraperitoneal injection. In kind it is in vivo, rat. From the text:
The MMP was custom synthesized by the Nard Institute (Kobe, Japan) using methods described previously (Toyohara et al. [2020a]). All other chemical reagents were obtained from commercial sources. Male ddY mice were obtained from Japan SLC (Hamamatsu, Japan). Sprague–Dawley rats [Crl: CD(SD)] were obtained from […] (Yokohama, Japan). Animal studies were approved by the Animal Care and Use Committee of the Tokyo Metropolitan Institute for Geriatrics and Gerontology (Approval Nos. 22,015 and 23,007) and Nihon Bioresearch (Hashima, Japan; Approval Nos. 430,085 and 430,086). Acute toxicity studies were performed under the “Revisions of the Guidelines for Single and Repeated Dose Toxicity Studies” (PMDA, 1993). Ames test was performed under the “Guidance on Genotoxicity Testing and Data Interpretation for Pharmaceuticals Intended for Human Use” (PMDA, 2012).
In Japan, the structure of nonclinical toxicology studies for PET drugs in clinical research is the responsibility of the ethics committee of each institution or the subcommittee of specialities of PET drugs. According to the method used previously for approval of PET drugs for clinical use in our institute (Toyohara et al. [2013], [2016], [2020b]; Sakata et al. [2017]), we performed single-arm acute toxicology studies of the active pharmaceutical ingredient (MMP) and final dose formulation ([^11C]MMP injection). Mutagenicity tests will also be conducted, as there are concerns about stochastic effects on genotoxicity.
Acute toxicity studies were performed at the Hashima Research Center, Nihon Bioresearch, under non-Good Laboratory Practice (GLP) control. Acute toxicity of MMP was tested in Sprague–Dawley rats. MMP at a dose of 3.55 mg/kg body weight (0.71 mg/mL in 10 v/v% dimethyl sulfoxide containing water for injection) was injected intraperitoneally into 5-week-old rats weighing 143–172 g (male, n = 5) and 129–135 g (female, n = 5). The dose of 3.55 mg/kg body weight is the 10,000-fold equivalent of the postulated maximum administration dose (1.85 nmol/0.355 µg/kg body weight) of 740 MBq [^11C]MMP, with the lowest molar activity (Am) of 10 MBq/nmol for humans weighing 40 kg. Rats were observed frequently until 1 h and then at 2, 4, and 6 h after the injection on day 1, and thereafter once daily for 14 days for clinical signs of toxicity. Rats were weighed on days 1, 2, 4, 7, 10, and 14. At the end of the 14-day observation period, the rats were euthanized by exsanguination under isoflurane anaesthesia, and a macroscopic analysis of the autopsy samples was performed.

The structures appear in SMILES notation. “And” between values parts separate entries of the source, which are not always exact repeats. Equal entries are not always repeated.

T3 sequence (Q9Y5N1 whole entry): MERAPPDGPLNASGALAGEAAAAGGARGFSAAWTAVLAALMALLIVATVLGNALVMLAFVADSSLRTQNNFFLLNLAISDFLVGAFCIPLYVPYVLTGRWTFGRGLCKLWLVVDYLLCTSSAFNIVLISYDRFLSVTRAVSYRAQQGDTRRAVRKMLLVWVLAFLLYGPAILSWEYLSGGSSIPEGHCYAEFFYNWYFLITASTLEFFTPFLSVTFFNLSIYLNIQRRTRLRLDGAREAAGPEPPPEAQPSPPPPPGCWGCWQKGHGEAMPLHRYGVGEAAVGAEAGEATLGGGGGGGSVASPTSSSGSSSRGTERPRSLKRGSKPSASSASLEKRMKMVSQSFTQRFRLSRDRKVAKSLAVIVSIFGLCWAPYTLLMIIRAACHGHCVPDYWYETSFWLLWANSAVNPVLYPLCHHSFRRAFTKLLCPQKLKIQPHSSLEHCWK
T7 sequence (P28223 whole entry): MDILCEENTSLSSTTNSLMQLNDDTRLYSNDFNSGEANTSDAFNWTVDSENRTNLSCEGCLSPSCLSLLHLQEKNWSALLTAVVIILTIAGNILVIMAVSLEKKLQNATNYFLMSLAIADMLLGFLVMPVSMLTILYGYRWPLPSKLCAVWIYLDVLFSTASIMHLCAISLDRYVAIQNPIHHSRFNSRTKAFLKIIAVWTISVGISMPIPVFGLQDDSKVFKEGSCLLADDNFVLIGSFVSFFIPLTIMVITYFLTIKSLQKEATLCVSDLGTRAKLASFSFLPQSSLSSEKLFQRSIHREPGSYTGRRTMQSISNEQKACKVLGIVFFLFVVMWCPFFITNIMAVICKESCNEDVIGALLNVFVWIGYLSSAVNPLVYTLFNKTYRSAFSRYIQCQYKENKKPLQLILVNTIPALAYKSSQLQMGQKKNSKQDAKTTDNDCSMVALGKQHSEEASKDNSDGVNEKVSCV

On to `Cc1ccc(CC(C)NC(C)C)cc1` (stereo not drawn) [MMP, N-isopropyl-p-methylamphetamine], for which the “Inhibition ratio (%)” value was 44.47% in series [1]; 32.80% in series [2]; 6.90% at Dopamine D1; 0.00% in series [3]; 11.86% in the series on Glutamate (Ketamine); 4.63% in [4]. In addition, the “Inhibition ratio (%)” value was found to be 0.00% in series [5]; 14.43% at Histamine H2; 3.82% on Histamine H3; 27.81% on Muscarinic M1; 23.38% at Muscarinic M2; 4.92% in the series with Opiate (non-selective). Besides, the “Inhibition ratio (%)” value at Serotonin 5HT1A was 15.84%; on Serotonin 5HT2A it was 24.12%; in the series with Sigma (non-selective) (10 µM, radioligand [^3H]DTG, mean of duplicate), 86% and 85.89%. Besides, on Sigma (non-selective) (competitive inhibition curve, [^3H]DTG, duplicate), the IC50 – broadly, the concentration that inhibits the measured activity by half – came out at 1.1 µM. Also, in the series with Sigma (non-selective) (fraction of the affinity of haloperidol), the “affinity for sigma receptor relative to existing sigma receptor ligand (haloperidol)” value is on record as “approximately 1/100”. Moreover, the “inhibition, other brain neuroreceptors” value in series [6] is on record as under 50%. The “NOAEL as multiple of postulated maximum administration dose” value in the series on Sprague–Dawley rats (740 MBq, Am 10 MBq/nmol, human body weight 40 kg) is 1,600 times. Further, the acute toxicity entry in the series with Sprague–Dawley rats (rats, 3.55 mg/kg body weight (10,000 times potential maximum clinical dose)) is reported as “No acute toxicity”. Besides, in the series on Sprague–Dawley rats (rats, single i.p. 3.55 mg/kg), the body weight gain entry is “normal gains in body weight”. In addition, the post-mortem macroscopic examination entry in the series on Sprague–Dawley rats (rats, single i.p. 3.55 mg/kg) is “no abnormalities”. In addition, in the series on Sprague–Dawley rats (rats, single i.p. 3.55 mg/kg, 14-day observation), the mortality result is “no mortality”. For the same compound, the “clinical signs of toxicity” value with Sprague–Dawley rats (rats, single i.p. 3.55 mg/kg, 15-day period) is recorded as “no clinical signs of toxicity”.
